Measurements published in ChEMBL document CHEMBL1671687, “Enhancement of biofilm formation by subinhibitory concentrations of macrolides in icaADBC-positive and -negative clinical isolates of Staphylococcus epidermidis” (2010).
Values after ≈ are worked out from the molar mass of the structure shown.

Key:
Type in all cases: functional
[1] = tested on: Staphylococcus epidermidis; experiment: Enhancement of biofilm formation Staphylococcus epidermidis SW067 expressing icaA gene at subinhibitory concentration by microtiter plate assay; set-up: scale not given: the % may be the effect or the level left
[2] = tested on: Staphylococcus epidermidis; experiment: Enhancement of biofilm formation Staphylococcus epidermidis SW045 expressing icaA gene at subinhibitory concentration by microtiter plate assay; set-up: scale not given: the % may be the effect or the level left
[3] = tested on: Staphylococcus epidermidis; experiment: Enhancement of biofilm formation Staphylococcus epidermidis SW085 expressing icaA gene at subinhibitory concentration by microtiter plate assay; set-up: scale not given: the % may be the effect or the level left
[4] = tested on: Staphylococcus epidermidis; experiment: Enhancement of biofilm formation Staphylococcus epidermidis SW104 expressing icaA gene at subinhibitory concentration by microtiter plate assay; set-up: scale not given: the % may be the effect or the level left
[5] = tested on: Staphylococcus epidermidis; experiment: Enhancement of biofilm formation Staphylococcus epidermidis SW021 at subinhibitory concentration by microtiter plate assay; set-up: scale not given: the % may be the effect or the level left
[6] = tested on: Staphylococcus epidermidis; experiment: Enhancement of biofilm formation Staphylococcus epidermidis SW029 expressing icaA gene at subinhibitory concentration by microtiter plate assay; set-up: scale not given: the % may be the effect or the level left
[7] = tested on: Staphylococcus epidermidis; experiment: Enhancement of biofilm formation Staphylococcus epidermidis SW115 at subinhibitory concentration by microtiter plate assay; set-up: scale not given: the % may be the effect or the level left
[8] = tested on: Staphylococcus epidermidis; experiment: Enhancement of biofilm formation Staphylococcus epidermidis SW071 at subinhibitory concentration by microtiter plate assay; set-up: scale not given: the % may be the effect or the level left
[9] = tested on: Staphylococcus epidermidis; experiment: Enhancement of biofilm formation Staphylococcus epidermidis SW036 at subinhibitory concentration by microtiter plate assay; set-up: scale not given: the % may be the effect or the level left
[10] = tested on: Staphylococcus epidermidis; experiment: Antimicrobial activity against Staphylococcus epidermidis SW036
[11] = tested on: Staphylococcus epidermidis; experiment: Enhancement of biofilm formation Staphylococcus epidermidis SW070 at subinhibitory concentration by microtiter plate assay; set-up: scale not given: the % may be the effect or the level left
[12] = tested on: Staphylococcus epidermidis; experiment: Enhancement of biofilm formation Staphylococcus epidermidis SW099 at subinhibitory concentration by microtiter plate assay; set-up: scale not given: the % may be the effect or the level left
[13] = tested on: Staphylococcus epidermidis; experiment: Antimicrobial activity against Staphylococcus epidermidis SW027 expressing icaA gene assessed as enhancement of biofilm formation at subinhibitory concentration by microtiter plate assay; set-up: scale not given: the % may be the effect or the level left
[14] = tested on: Staphylococcus epidermidis; experiment: Enhancement of biofilm formation Staphylococcus epidermidis SW098 expressing icaA gene at subinhibitory concentration by microtiter plate assay; set-up: scale not given: the % may be the effect or the level left
[15] = tested on: Staphylococcus epidermidis; experiment: Enhancement of biofilm formation Staphylococcus epidermidis ATCC 35984 expressing icaA gene at subinhibitory concentration by microtiter plate assay; set-up: scale not given: the % may be the effect or the level left
[16] = tested on: Staphylococcus epidermidis; experiment: Enhancement of biofilm formation Staphylococcus epidermidis SW032 expressing icaA gene at subinhibitory concentration by microtiter plate assay; set-up: scale not given: the % may be the effect or the level left
[17] = tested on: Staphylococcus epidermidis; experiment: Enhancement of biofilm formation Staphylococcus epidermidis SW120 at subinhibitory concentration by microtiter plate assay; set-up: scale not given: the % may be the effect or the level left
[18] = tested on: Staphylococcus epidermidis; experiment: Antimicrobial activity against Staphylococcus epidermidis SW029 expressing icaA gene
[19] = tested on: Staphylococcus epidermidis; experiment: Enhancement of biofilm formation Staphylococcus epidermidis SW082 at subinhibitory concentration by microtiter plate assay; set-up: scale not given: the % may be the effect or the level left
[20] = tested on: Staphylococcus epidermidis; experiment: Enhancement of biofilm formation Staphylococcus epidermidis SW126 expressing icaA gene at subinhibitory concentration by microtiter plate assay; set-up: scale not given: the % may be the effect or the level left
[21] = tested on: Staphylococcus epidermidis; experiment: Enhancement of biofilm formation Staphylococcus epidermidis SW058 expressing icaA gene at subinhibitory concentration by microtiter plate assay; set-up: scale not given: the % may be the effect or the level left
[22] = tested on: Staphylococcus epidermidis; experiment: Enhancement of biofilm formation Staphylococcus epidermidis SW088 at subinhibitory concentration by microtiter plate assay; set-up: scale not given: the % may be the effect or the level left
[23] = tested on: Staphylococcus epidermidis; experiment: Enhancement of biofilm formation Staphylococcus epidermidis SW061 expressing icaA gene at subinhibitory concentration by microtiter plate assay; set-up: scale not given: the % may be the effect or the level left
[24] = tested on: Staphylococcus epidermidis; experiment: Enhancement of biofilm formation Staphylococcus epidermidis SW015 at subinhibitory concentration by microtiter plate assay; set-up: scale not given: the % may be the effect or the level left

CC[C@H]1OC(=O)[C@H](C)[C@@H](O[C@H]2C[C@@](C)(OC)[C@@H](O)[C@H](C)O2)[C@H](C)[C@@H](O[C@@H]2O[C@H](C)C[C@H](N(C)C)[C@H]2O)[C@](C)(OC)C[C@@H](C)C(=O)[C@H](C)[C@@H](O)[C@]1(C)O [CLARITHROMYCIN]
Activity [1]: 140.2%
Activity [2]: 32.2%
Activity [3]: 275.8%
Activity [4]: 51.5%
Activity [5]: 54.6%
Activity [6]: 146.4%
Activity [7]: 164%
Activity [8]: 147.2%
Activity [9]: 292%
MIC [10]: 16 µg/mL (≈ 21.4 µM)
Activity [11]: 155.6%
Activity [12]: 38.7%
Activity [13]: 62.3%
Activity [14]: 112.8%
Activity [15]: -3.9%
Activity [16]: 71.8%
Activity [17]: 50.6%
MIC [18]: > 128 µg/mL
Activity [19]: 62.8%
Activity [20]: 50.3%
Activity [21]: 54.9%
Activity [22]: 201.5%
Activity [23]: 46.3%
Activity [24]: 78.6%
